Assay type in all cases: in vivo
One data set relates to Setaria faberii. The experiment in a line: Greenhouse trial: herbicidal efficacy, Setaria faberii. To be noted: Table 5; post-emergence, 1-3-leaf stage, scoring 14 days after treatment; g of ai/ha: A1.1 100; B1.1 5; C7 15; C13 2.5; C9 12.5 alone, 2.5 in combination. Here is the method: (§1) The trials were carried out under greenhouse conditions (test pots, diameter 8 cm, spray application using 300 l of water/hectare, 2 repetitions, 6 to 8 plants per pot).
(§2) Application was by post-emergence treatment; the species of the harmful plants and their stage of growth at the time of treatment are indicated in the individual results tables. The application rates of the herbicidally active compounds used on their own or in combinations are likewise listed in the individual results tables.
(§3) Scoring was by visual comparison of the treated with the untreated control pots (0-100% scale, 14 d after the application).
(§4) 4.2 Abbreviations used in Tables 4 to 8 application rate g/ai=application rate in grams of active compound per hectare • ai=active ingredient (of an active compound content of 100%) • GA=glufosinate-ammonium • GA-tolerant=corn which is tolerant to GA (GMO: LL corn) • E^C=expected value according to Colby, (E^C=A+B−A×B/100)= • =for ternary combinations: (A+B)+C−(A+B)×C/100 • Δ=difference (%) between observed value -%- vs. expected value (%) (observed value minus expected value) • examination: —observed values for (A), (B) and (A)+(B) in % • scoring: —observed value (%) greater>than E^C/E^A: ->synergism (+A) • —observed value (%) equal to =E^C/E^A->additive effect (+−Δ) • —observed value (%) smaller<than E^A/E^C->antagonism (−Δ)

The next data set deals with Pharbitis purpureum. The experiment in a line: Greenhouse trial: herbicidal efficacy, Pharbitis purpureum. The note with it: Table 7; post-emergence, 1-leaf stage, scoring 14 days after treatment; g of ai/ha: A1.1 100; B1.1 5; C12 50. Here is the method:
as §1, §2, §3, §4

The test system of another data set is Setaria viridis. The experiment in a line: Greenhouse trial: herbicidal efficacy, Setaria viridis. To be noted: Table 6; post-emergence, 1-3-leaf stage, scoring 14 days after treatment; g of ai/ha: A1.1 100; B1.1 5; C3 5; C11 25. Here is the method: as §1, §2, §3, §4
The next data set concerns corn (GA-tolerant). The experiment in a line: Greenhouse trial: crop plant compatibility. As to the method: as §1, §3
In a further data set the test system is Eleusine indica. The experiment in a line: Greenhouse trial: herbicidal efficacy, Eleusine indica. To be noted: Table 8; post-emergence, 1-2-leaf stage, scoring 14 days after treatment; g of ai/ha: A1.1 100; B1.1 5; C8 0.5; isoxadifen 100; cyprosulfamide 100; C′ = isoxadifen in r19, cyprosulfamide in r23. As to the method: as §1, §2, §3, §4
The mark [1] stands for this setting: Table 4, post-emergence, 1-2-leaf stage, scoring 14 days after treatment, g of ai/ha: A1.1 100, B1.1 2.5 alone, 5 in combinations, C1 2.5, C2 1.25, C10 250, C4 50, C5 1, C6 2.
[2] abbreviates: Table 5, post-emergence, 1-3-leaf stage, scoring 14 days after treatment, g of ai/ha: A1.1 100, B1.1 5, C7 15, C13 2.5, C9 12.5 alone, 2.5 in combination.
Where [3] appears, read: Table 8, post-emergence, 1-2-leaf stage, scoring 14 days after treatment, g of ai/ha: A1.1 100, B1.1 5, C8 0.5, isoxadifen 100, cyprosulfamide 100, C′ = isoxadifen in r19, cyprosulfamide in r23.

Consider `CP(=O)(O)CCC(N)C(=O)O` (centres unmarked) [(A1.1) GA, glufosinate-ammonium], for which the “Herbicidal efficacy % Setaria faberii” value with Setaria faberii stood at 10%. The “Herbicidal efficacy % Pharbitis purpureum” value in the data set with Pharbitis purpureum stood at 45%. The “Herbicidal efficacy % Setaria viridis” value in the data set on Setaria viridis was found to be 5%. Further, the “Damage to crop plants (%) corn (GA-tolerant) (≦15-20% acceptable)” value (“Damage to crop plants (%) corn” for short) stood at 0% with corn (GA-tolerant) (setting [1]); 0% in the data set with corn (GA-tolerant) (setting [2]); 0% with corn (GA-tolerant) (Table 6, post-emergence, 1-3-leaf stage, scoring 14 days after treatment, g of ai/ha: A1.1 100, B1.1 5, C3 5, C11 25); 0% in the data set on corn (GA-tolerant) (Table 7, post-emergence, 1-leaf stage, scoring 14 days after treatment, g of ai/ha: A1.1 100, B1.1 5, C12 50); 0% in the data set with corn (GA-tolerant) (setting [3]).

Take `COC(=O)c1nc(-c2ccc(Cl)c(OC)c2F)cc(N)c1Cl` [(B1.1), methyl 4-amino-3-chloro-6-(4-chloro-2-fluoro-3-methoxyphenyl)pyridine-2-carboxylate]: in the data set on Setaria faberii, the “Herbicidal efficacy % Setaria faberii” value turned out to be 96%. The “Herbicidal efficacy % Pharbitis purpureum” value in the data set on Pharbitis purpureum is 45%. Besides, in the data set on Setaria viridis, the “Herbicidal efficacy % Setaria viridis” value is 90%. In the data set with corn (GA-tolerant) (in vivo), the “Damage to crop plants (%) corn” value was determined as 0%.

On to `CS(=O)(=O)c1cc(C(F)(F)F)ccc1C(=O)c1cnoc1C1CC1` [(C3) isoxaflutole, isoxaflutole], for which the “Herbicidal efficacy % Setaria viridis” value in the data set on Setaria viridis stood at 0%. For the same compound, the “Damage to crop plants (%) corn” value with corn (GA-tolerant) (in vivo) turned out to be 15%.

On to `N#Cc1cc(Br)c(O)c(Br)c1` [(C4) bromoxynil, bromoxynil], for which the “Damage to crop plants (%) corn” value with corn (GA-tolerant) (setting [1]) is on record as 0%.

On to `C#CCN1C(=O)COc2cc(F)c(N3C(=O)C4=C(CCCC4)C3=O)cc21` [(C5) flumioxazin, flumioxazin], for which the “Damage to crop plants (%) corn” value with corn (GA-tolerant) (setting [1]) is 15%.

`CS(=O)(=O)c1ccc(C(=O)C2C(=O)CCCC2=O)c([N+](=O)[O-])c1` [(C7) mesotrione, mesotrione]: the “Herbicidal efficacy % Setaria faberii” value with Setaria faberii worked out at 0%. Besides, in the data set on corn (GA-tolerant) (setting [2]), the “Damage to crop plants (%) corn” value is on record as 0%.

With `COC(=O)c1csc(C)c1S(=O)(=O)NC(=O)n1nc(OC)n(C)c1=O` [(C8) thiencarbazone-me, thiencarbazone-methyl], the “Herbicidal efficacy % Eleusine indica” value with Eleusine indica was found to be 10%. In addition, the “Damage to crop plants (%) corn” value with corn (GA-tolerant) (setting [3]) was found to be 0%.

Consider `CS(=O)(=O)c1ccc(C(=O)C2C(=O)CCCC2=O)c(Cl)c1COCC(F)(F)F` [(C9) tembotrione, tembotrione], for which the “Herbicidal efficacy % Setaria faberii” value with Setaria faberii amounted to 10%.

Take `CCNc1nc(Cl)nc(NC(C)C)n1` [(C10) atrazin, atrazine]: the “Damage to crop plants (%) corn” value in the data set with corn (GA-tolerant) (setting [1]) is 0%.

As to `CC(C)N(C(=O)COc1nnc(C(F)(F)F)s1)c1ccc(F)cc1` [(C11) flufenacet, flufenacet], in the data set on Setaria viridis, the “Herbicidal efficacy % Setaria viridis” value worked out at 0%. For the same compound, in the data set with corn (GA-tolerant) (in vivo), the “Damage to crop plants (%) corn” value is reported as 0%.

For `CCOCN(C(=O)CCl)c1c(C)cccc1CC` [(C12) acetochlor, acetochlor], the “Herbicidal efficacy % Pharbitis purpureum” value in the data set on Pharbitis purpureum is 10%. The “Damage to crop plants (%) corn” value in the data set on corn (GA-tolerant) (in vivo) was found to be 0%.

For `Cc1c(C(=O)c2cnn(C)c2O)ccc(S(C)(=O)=O)c1C1=NOCC1` [(C13) topramezone, topramezone], the “Herbicidal efficacy % Setaria faberii” value in the data set with Setaria faberii worked out at 10%. In the data set on corn (GA-tolerant) (setting [2]), the “Damage to crop plants (%) corn” value was 0%.

Turning to `O=C(O)C1=NOC(c2ccccc2)(c2ccccc2)C1` [(C14) isoxadifen, isoxadifen], the “Herbicidal efficacy % Eleusine indica” value in the data set on Eleusine indica is 0%. Besides, the “Damage to crop plants (%) corn” value in the data set on corn (GA-tolerant) (setting [3]) came out at 0%.

As to `COc1ccccc1C(=O)NS(=O)(=O)c1ccc(C(=O)NC2CC2)cc1` [(C15) cyprosulfamide, cyprosulfamide], the “Herbicidal efficacy % Eleusine indica” value in the data set with Eleusine indica came to 0%. Besides, the “Damage to crop plants (%) corn” value in the data set with corn (GA-tolerant) (setting [3]) was determined as 0%.

(Values after patent publication US20110294663A1, “Herbicidal composition for tolerant or resistant corn crops” (priority 2010, published 2011).)
